Laboratory results as given in patent publication US12612386B2, “Heteroaryl-triazole compounds as pesticides” (Bayer Aktiengesellschaft, priority 2020, dated 2026).

System: cattle tick larvae (Rhipicephalus microplus), strain Parkhurst, resistant against synthetic pyrethroids
Test: Rhipicephalus (Boophilus) microplus in-vitro contact test, larval cattle tick
Assay type: in vivo
Conditions: 5 μg/cm^2 (=500 g/ha), after 48 hours
Procedure: Rhipicephalus (Boophilus) Microplus—In-Vitro Contact Tests Larval Cattle Tick (Strain Parkhurst, Resistant Against Synthetic Pyrethroids)
(§1) 9 mg compound is solved in 1 mL acetone and diluted with acetone to the desired concentration. 250 μL of the test solution is filled in 25 mL glass test tubes and homogeneously distributed on the inner walls by rotation and tilting on a shaking device (2 h at 30 rpm). With a compound concentration of 900 ppm, an inner surface of 44.7 cm^2 and a homogeneous distribution, a dose of 5 μg/cm^2 is achieved.
After the solvent has evaporated, each test tube is filled with 20-50 cattle tick larvae (Rhipicephalus microplus), closed with a perforated lid and incubated in a horizontal position at 85% relative humidity and 27° C. in an incubator. After 48 hours efficacy is determined. The larvae are patted on the ground of the tubes and negative geotactic behavior is recorded.
An efficacy of 100% means all larvae are dead or moribund; 0% means no larvae are dead or moribund.

Row | Structure (SMILES) | efficacy (larvae dead or moribund)
1 | C[C@H](NC(=O)c1cc(Cl)cc(OC(F)(F)F)c1)c1ncnn1-c1cc(C#N)ncn1 [I-18] | 100%
2 | C[C@H](NC(=O)c1cccc(OC(F)(F)F)c1)c1ncnn1-c1cc(C(N)=O)ncn1 [I-50] | 100%
3 | CNC(=O)c1cc(-n2nc(C)nc2[C@H](C)NC(=O)c2cc(Br)cc(Br)c2)ncn1 [I-52] | 100%
4 | CC(C)N(C)C(=O)c1cc(-n2ncnc2[C@H](C)NC(=O)c2cc(Br)cc(OC(F)(F)F)c2)ncn1 [I-55] | 100%
5 | CC(C)N(C)C(=O)c1cc(-n2ncnc2[C@H](C)NC(=O)c2cc(Cl)cc(OC(F)(F)F)c2)ncn1 [I-56] | 100%

System: adult cat fleas (Ctenocephalides felis)
Test: Ctenocephalides felis in-vitro contact test, adult cat flea
Assay type: in vivo
Conditions: 5 μg/cm^2 (=500 g/ha), after 48 hours
Procedure: Ctenocephalides felis—In-Vitro Contact Tests Adult Cat Flea
as §1
(§2) After the solvent has evaporated, each test tube is filled with 5-10 adult cat fleas (Ctenocephalides felis), closed with a perforated lid and incubated in a lying position at room temperature and relative humidity. After 48 hours efficacy is determined. The fleas are patted on the ground of the tubes and are incubated on a heating plate at 45-50° C. for at most 5 minutes. Immotile or uncoordinated moving fleas, which are not able to escape the heat by climbing upwards, are marked as dead or moribund.
An efficacy of 100% means all fleas are dead or moribund; 0% means no fleas are dead or moribund.

Row | Structure (SMILES) | efficacy (fleas dead or moribund)
6 | C[C@H](NC(=O)c1cc(Cl)cc(OC(F)(F)F)c1)c1ncnn1-c1cc(C#N)ncn1 [I-18] | 90%
7 | C[C@H](NC(=O)c1cccc(OC(F)(F)F)c1)c1ncnn1-c1cc(C(N)=O)ncn1 [I-50] | 100%
8 | CNC(=O)c1cc(-n2nc(C)nc2[C@H](C)NC(=O)c2cc(Br)cc(Br)c2)ncn1 [I-52] | 100%
9 | CC(C)N(C)C(=O)c1cc(-n2ncnc2[C@H](C)NC(=O)c2cc(Br)cc(OC(F)(F)F)c2)ncn1 [I-55] | 100%
10 | CC(C)N(C)C(=O)c1cc(-n2ncnc2[C@H](C)NC(=O)c2cc(Cl)cc(OC(F)(F)F)c2)ncn1 [I-56] | 100%

System: adult brown dog ticks (Rhipicephalus sanguineus)
Test: Rhipicephalus sanguineus in-vitro contact test, adult brown dog ticks
Assay type: in vivo
Conditions: 48 h, read-out: efficacy (ticks dead or moribund)
Procedure: Rhipicephalus sanguineus—In-Vitro Contact Tests with Adult Brown Dog Ticks
as §1
as §2, with “brown dog ticks (Rhipicephalus sanguineus),” for “cat fleas (Ctenocephalides felis),”, “ticks” for “fleas”, “ticks,” for “fleas,”
An efficacy of 100% means all ticks are dead or moribund; 0% means no ticks are dead or moribund.

Row | Structure (SMILES) | pest or weed control at 5 µg/cm2, 500 g/ha
11 | C[C@H](NC(=O)c1cc(Cl)cc(OC(F)(F)F)c1)c1ncnn1-c1cc(C#N)ncn1 [I-18] | 100%
12 | C[C@H](NC(=O)c1cccc(OC(F)(F)F)c1)c1ncnn1-c1cc(C(N)=O)ncn1 [I-50] | 100%
13 | CNC(=O)c1cc(-n2nc(C)nc2[C@H](C)NC(=O)c2cc(Br)cc(Br)c2)ncn1 [I-52] | 100%
14 | CC(C)N(C)C(=O)c1cc(-n2ncnc2[C@H](C)NC(=O)c2cc(Br)cc(OC(F)(F)F)c2)ncn1 [I-55] | 100%
15 | CC(C)N(C)C(=O)c1cc(-n2ncnc2[C@H](C)NC(=O)c2cc(Cl)cc(OC(F)(F)F)c2)ncn1 [I-56] | 100%

System: larvae of the banded cucumber beetle (Diabrotica balteata)
Test: Diabrotica balteata spray test
Assay type: in vivo
Conditions: 168 h, 100 g/ha (=32 μg/well), after 7 days, read-out: efficacy (seedling growth)
Method in brief: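 Germinated wheat seeds on agar (5 per well) were sprayed with compound formulated in acetone/DMF and diluted in water with 1000 ppm emulsifier. Each unit was then infested with 10–20 larvae. Efficacy % was scored after 7 days as seedling growth relative to an untreated, uninfested control (100% = normal growth).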

Row | Structure (SMILES) | pest or weed control at 32 µg/disc, 100 g/ha
16 | C[C@H](NC(=O)c1cc(Cl)cc(OC(F)(F)F)c1)c1ncnn1-c1cc(C#N)ncn1 [I-18] | 100%
17 | C[C@H](NC(=O)c1cccc(OC(F)(F)F)c1)c1ncnn1-c1cc(C(N)=O)ncn1 [I-50] | 100%
18 | CNC(=O)c1cc(-n2nc(C)nc2[C@H](C)NC(=O)c2cc(Br)cc(Br)c2)ncn1 [I-52] | 100%
19 | CC(C)N(C)C(=O)c1cc(-n2ncnc2[C@H](C)NC(=O)c2cc(Br)cc(OC(F)(F)F)c2)ncn1 [I-55] | 100%
20 | CC(C)N(C)C(=O)c1cc(-n2ncnc2[C@H](C)NC(=O)c2cc(Cl)cc(OC(F)(F)F)c2)ncn1 [I-56] | 100%

System: green peach aphid (Myzus persicae)
Test: Myzus persicae spray test (MYZUPE)
Assay type: in vivo
Conditions: 120 h, 100 g/ha, after 5 days
Method in brief: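 Chinese cabbage leaf disks infested with all instars of Myzus persicae were sprayed with compound formulated in acetone/dimethylformamide and diluted in water with 1000 ppm alkylarylpolyglycol ether emulsifier. Percent mortality was scored after 5 days, 100% meaning all aphids killed.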

Row | Structure (SMILES) | mortality at 100 g/ha
21 | C[C@H](NC(=O)c1cc(Cl)cc(OC(F)(F)F)c1)c1ncnn1-c1cc(C#N)ncn1 [I-18] | 90%
22 | C[C@H](NC(=O)c1cccc(OC(F)(F)F)c1)c1ncnn1-c1cc(C(N)=O)ncn1 [I-50] | 90%
23 | CC(C)N(C)C(=O)c1cc(-n2ncnc2[C@H](C)NC(=O)c2cc(Br)cc(OC(F)(F)F)c2)ncn1 [I-55] | 100%
24 | CC(C)N(C)C(=O)c1cc(-n2ncnc2[C@H](C)NC(=O)c2cc(Cl)cc(OC(F)(F)F)c2)ncn1 [I-56] | 90%

System: larvae of the southern green stink bug (Nezara viridula)
Test: whole plant or invertebrate
Assay type: in vivo
Conditions: 96 h
Method in brief: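 Compound in acetone/DMF was diluted in water with 1000 ppm alkylarylpolyglycol ether emulsifier. Barley plants were sprayed with it, then infested with Nezara viridula larvae. Mortality % was scored after 4 days (100% = all killed).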

Row | Structure (SMILES) | mortality at 500 g/ha
25 | C[C@H](NC(=O)c1cc(Cl)cc(OC(F)(F)F)c1)c1ncnn1-c1cc(C#N)ncn1 [I-18] | 100%

System: brown planthopper (Nilaparvata lugens)
Test: Nilaparvata lugens spray test
Assay type: in vivo
Conditions: 96 h
Procedure: Nilaparvata lugens—Spray Test
• Solvent: 78.0 parts by weight of acetone • 1.5 parts by weight of dimethylformamide • Emulsifier: alkylarylpolyglycol ether
To produce a suitable preparation of active compound, 1 part by weight of active compound is mixed with the stated amount of solvents and is diluted with water, containing an emulsifier concentration of 1000 ppm, to the desired concentration. Further test concentrations are prepared by dilution with emulsifier containing water.
Rice plants (Oryza sativa) are sprayed with a preparation of the active ingredient of the desired concentration and the plants are infested with the brown planthopper (Nilaparvata lugens).
After 4 days mortality in % is determined. 100% means all planthoppers have been killed and 0% means none of the planthoppers have been killed.

Row | Structure (SMILES) | mortality at 500 g/ha
26 | C[C@H](NC(=O)c1cccc(OC(F)(F)F)c1)c1ncnn1-c1cc(C(N)=O)ncn1 [I-50] | 100%

System: fall armyworm larvae (Spodoptera frugiperda)
Test: whole plant or invertebrate
Assay type: in vivo
Conditions: 168 h
Method in brief: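 Maize leaf sections sprayed with compound in acetone/DMF with alkylarylpolyglycol ether emulsifier diluted in water, then infested with fall armyworm larvae once dry. Mortality (%) scored after 7 days; 100% = all caterpillars killed.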

Row | Structure (SMILES) | mortality at 100 g/ha
27 | C[C@H](NC(=O)c1cc(Cl)cc(OC(F)(F)F)c1)c1ncnn1-c1cc(C#N)ncn1 [I-18] | 100%
28 | C[C@H](NC(=O)c1cccc(OC(F)(F)F)c1)c1ncnn1-c1cc(C(N)=O)ncn1 [I-50] | 100%
29 | CNC(=O)c1cc(-n2nc(C)nc2[C@H](C)NC(=O)c2cc(Br)cc(Br)c2)ncn1 [I-52] | 100%
30 | CC(C)N(C)C(=O)c1cc(-n2ncnc2[C@H](C)NC(=O)c2cc(Br)cc(OC(F)(F)F)c2)ncn1 [I-55] | 100%
31 | CC(C)N(C)C(=O)c1cc(-n2ncnc2[C@H](C)NC(=O)c2cc(Cl)cc(OC(F)(F)F)c2)ncn1 [I-56] | 100%
